Our source for the CD4 count increase and pharmacokinetic interaction values is EP0768881B1, “ANTI-HIV TRIPLE COMBINATION COMPRISING ZIDOVUDINE, LAMIVUDINE AND LOVIRIDE” (JANSSEN PHARMACEUTICA N.V., priority 1994, dated 1996).

One series relates to CD4 cells. The following applies: patients receiving established anti-HIV drugs alone; count then decreases again; cited from earlier work.
Series [1] can be described thus: Pharmacokinetic interaction between components in open case-control study. It counts as in vivo, HIV-1 infected patients. The following applies: between lamivudine and zidovudine or loviride. On the procedure:
The triple combination of zidovudine (200 mg t.i.d.), lamivudine (300 mg b.i.d.) and loviride (100 mg t.i.d.) versus the double combination of zidovudine (200 mg t.i.d.) and loviride (100 mg t.i.d.) was assessed in an open case-control study. Twenty HIV-1 infected patients with a positive p24 antigen test at baseline were included. Both combinations were well tolerated. Serious drug-induced safety-related abnormalities were not observed. […] The median CD4 count (% versus baseline) during therapy in the group of patients treated with the triple combination were compared with the median CD4 count in the group of patients treated with the double combination in Table 1. The median p24 antigen count (% versus baseline) of the group of patients treated with the triple combination were compared with the median p24 antigen count of the group of patients treated with double combination in Table 2.

Turning to `Nc1ccn([C@H]2CS[C@@H](CO)O2)c(=O)n1` [lamivudine, (-)-2',3'-dideoxy-3'-thiacytidine], the CD4 count increase entry with CD4 cells is “about 20%”. Further, in series [1], the pharmacokinetic interaction result is reported as “No clinically relevant pharmacokinetic interaction”.
`Cc1cn([C@H]2C[C@H](N=[N+]=[N-])[C@@H](CO)O2)c(=O)[nH]c1=O` [zidovudine, 3'-azido-3'-deoxythymidine]: the CD4 count increase result in the series with CD4 cells is “about 20%”.
